This note sets out measurements from patent US10144742B2 (Millennium Pharmaceuticals, Inc., priority 2014, dated 2018).

The target in test [1] is hNAMPT protein (Homo sapiens (Human), UniProt P43490). Description: NAMPT enzyme assay (TR-FRET/HTRF, BodiPY ligand, anti 6His-Tb). Particulars: for IC50: NAMPT IC50 range class, read-out: IC50; for inhibition at 1 µM: compound concentration 1 μM, read-out: Percent Inhibition. Type of test: binding. The essentials: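 TR-FRET binding assay in which His-tagged human NAMPT with anti-6His-Tb is displaced by compound from a BodiPY ligand, incubated 1 h at rt in the dark. Excitation was at 320 nm, with the 520/486 nm emission ratio read. IC50 was fitted from inhibition relative to DMSO controls.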
Chain of hNAMPT protein (P43490 whole entry): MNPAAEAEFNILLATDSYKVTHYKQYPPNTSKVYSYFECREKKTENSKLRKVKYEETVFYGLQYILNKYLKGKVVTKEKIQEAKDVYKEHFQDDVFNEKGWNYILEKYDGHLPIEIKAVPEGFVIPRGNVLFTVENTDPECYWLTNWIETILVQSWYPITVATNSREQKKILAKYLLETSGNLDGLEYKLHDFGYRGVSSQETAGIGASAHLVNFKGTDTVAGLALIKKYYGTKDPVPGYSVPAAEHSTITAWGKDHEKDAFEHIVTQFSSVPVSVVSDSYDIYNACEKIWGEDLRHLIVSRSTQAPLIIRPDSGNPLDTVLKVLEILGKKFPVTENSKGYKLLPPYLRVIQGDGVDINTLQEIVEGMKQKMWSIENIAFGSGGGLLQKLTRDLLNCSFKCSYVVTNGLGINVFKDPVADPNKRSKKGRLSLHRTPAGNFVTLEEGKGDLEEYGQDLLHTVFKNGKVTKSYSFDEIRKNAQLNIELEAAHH
On the technique in general: TR-FRET usually uses a lanthanide donor and a delayed reading to cut background.

The subject of test [2] is PC3 cells. Description: PC3 growth inhibition (Cell-titer glo, 72 hours). In kind it is cell-based. Particulars: Homo sapiens, PC-3, PC3 cells, 72 hours, Cell-titer glo, read-out: Percent Inhibition (PC3 growth inhibition); for inhibition at 1.667 µM: compound concentration 1.667 μM; for inhibition at 1 µM: compound concentration 1 μM. The essentials:
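PC3 cells in RPMI1640 seeded overnight at 37 °C, 5% CO2, then exposed to compound diluted in AIM serum-free medium for 72 h. Viability by CellTiter-Glo luminescence vs DMSO controls; single-concentration % remaining viability (1 μM or 1.667 μM), or GI50/LD50 from curves.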

SMILES strings stand for the structures. Bounds are passed on as bounds.

Broadly, the IC50 is the concentration needed to halve the response being measured. For orientation: inhibition means the drop in the measured response relative to a control, in per cent. Turning to `COc1cccc(-c2nc3cc(C(=O)NCCc4cccnc4)ccc3nc2N2CCC(N3CCOCC3)CC2)c1` [Compound I-291, 3-(3-Methoxyphenyl)-2-[4-(morpholin-4-yl)piperidin-1-yl]-N-[2-(pyridin-3-yl)ethyl]quinoxaline-6-carboxamide], in test [1], the IC50 is below 100 nM and the inhibition at 1 µM was 98%. The inhibition at 1.667 µM in test [2] was 2%.
On the same counts, the results for `Cn1cncc1CCNC(=O)c1ccc2nc(N3CCC(O)CC3)c(-c3ccc(F)cc3)nc2c1` [Compound I-292, 3-(4-fluorophenyl)-2-(4-hydroxypiperidin-1-yl)-N-[2-(1-methyl-1H-imidazol-5-yl)ethyl]quinoxaline-6-carboxamide] are below 100 nM, 90% and 2%.
Consider `Cn1cc2c(n1)CN(c1nc3cc(C(=O)NCCCn4ccnc4)ccc3nc1-c1ccccc1)CC2` [Compound I-295, N-[3-(1H-imidazol-1-yl)propyl]-3-(2-methyl-2,4,5,7-tetrahydro-6H-pyrazolo[3,4-c]pyridin-6-yl)-2-phenylquinoxaline-6-carboxamide], for which, in test [1], the IC50 was 1000 to 2000 nM and the inhibition at 1 µM amounted to 49%. Moreover, the inhibition at 1 µM in test [2] is -6%.
Taken in the same sequence, the figures for `O=C(NCCCn1ccnc1)c1ccc2nc(N3CCn4ccnc4C3)c(-c3ccccc3)nc2c1` [Compound I-296, 2-(5,6-dihydroimidazo[1,2-a]pyrazin-7(8H)-yl)-N-[3-(1H-imidazol-1-yl)propyl]-3-phenylquinoxaline-6-carboxamide] were 500 to 1000 nM, 67% and -7%.
As to `O=C(NCCCc1cn[nH]c1)c1ccc2nc(N3CCOCC3)c(-c3ccc(F)cc3)nc2c1` [Compound I-297, 3-(4-Fluorophenyl)-2-(morpholin-4-yl)-N-[3-(1H-pyrazol-4-yl)propyl]quinoxaline-6-carboxamide], in test [1], the IC50 fell in the range of 100 to 500 nM and the inhibition at 1 µM was 88%. In test [2], the inhibition at 1.667 µM was found to be 2%.
Taken in the same sequence, the figures for `O=C(NCCCc1ncc[nH]1)c1ccc2nc(N3CCC(O)CC3)c(-c3ccc(Cl)cc3)nc2c1` [Compound I-298, 3-(4-chlorophenyl)-2-(4-hydroxypiperidin-1-yl)-N-[3-(1H-imidazol-2-yl)propyl]quinoxaline-6-carboxamide] were below 100 nM, above 99% and 2%.
Taken in the same sequence, the figures for `O=C(NCc1ccc2nccn2c1)c1ccc2nc(-c3ccc(F)cc3)c(-c3ccc(F)cc3)nc2c1` [Compound I-299, 2,3-bis(4-fluorophenyl)-N-(imidazo[1,2-a]pyridin-6-ylmethyl)quinoxaline-6-carboxamide] were 100 to 500 nM, 76% and 2%.
Regarding `O=C(NCCCc1ncc[nH]1)c1ccc2nc(C3=CCOCC3)c(-c3cccs3)nc2c1` [Compound I-300, 2-(3,6-dihydro-2H-pyran-4-yl)-N-[3-(1H-imidazol-2-yl)propyl]-3-(2-thienyl)quinoxaline-6-carboxamide], in test [1], the IC50 is below 100 nM and the inhibition at 1 µM is above 99%. In addition, the inhibition at 1.667 µM in test [2] was found to be 32%.
Consider `O=C(NCCCc1c[nH]cn1)c1ccc2nc(N3CCCCC3)c(-c3ccc(F)cc3)nc2c1` [Compound I-301, 3-(4-Fluorophenyl)-N-[3-(1H-imidazol-4-yl)propyl]-2-(piperidin-1-yl)quinoxaline-6-carboxamide], for which, in test [1], the IC50 is below 100 nM and the inhibition at 1 µM was determined as 99%. The inhibition at 1.667 µM in test [2] was found to be 2%.
`O=C(NCCc1cnc2ccccn12)c1ccc2nc(-c3ccc(F)cc3)c(-c3ccc(F)cc3)nc2c1` [Compound I-302, 2,3-bis(4-fluorophenyl)-N-[2-(imidazo[1,2-a]pyridin-3-yl)ethyl]quinoxaline-6-carboxamide]: in test [1], the IC50 was 500 to 1000 nM. Besides, the inhibition at 1 µM stood at 63% in test [1] and 87% in test [2].
Consider `Cn1ccc2c1CN(C(=O)c1ccc3nc(-c4ccc(F)cc4)c(-c4ccc(F)cc4)nc3c1)CC2` [Compound I-303, [2,3-bis(4-fluorophenyl)quinoxalin-6-yl](1-methyl-1,4,5,7-tetrahydro-6H-pyrrolo[2,3-c]pyridin-6-yl)methanone], for which, in test [1], the IC50 lay in the range of 2000 to 10000 nM and the inhibition at 1 µM was 15%. For the same molecule, in test [2], the inhibition at 1 µM was found to be 95%.
Taken in the same sequence, the figures for `COc1nn(C)c2c1CN(C(=O)c1ccc3nc(-c4ccc(F)cc4)c(-c4ccc(F)cc4)nc3c1)CC2` [Compound I-304, [2,3-bis(4-fluorophenyl)quinoxalin-6-yl](3-methoxy-1-methyl-1,4,6,7-tetrahydro-5H-pyrazolo[4,3-c]pyridin-5-yl)methanone] were 2000 to 10000 nM, 17% and 92%.
Turning to `O=C(NCCCc1ncc[nH]1)c1ccc2nc(-n3ncc4ccccc43)c(-c3ccc(F)cc3)nc2c1` [Compound I-305, 3-(4-fluorophenyl)-N-[3-(1H-imidazol-2-yl)propyl]-2-(1H-indazol-1-yl)quinoxaline-6-carboxamide], in test [1], the IC50 was below 100 nM and the inhibition at 1 µM is 93%. The inhibition at 1.667 µM in test [2] was 3%.
As to `Cc1c(F)cc(-c2nc3cc(C(=O)NCCCc4ncc[nH]4)ccc3nc2-c2ccc(F)cc2)cc1F` [Compound I-306, 3-(3,5-difluoro-4-methylphenyl)-2-(4-fluorophenyl)-N-[3-(1H-imidazol-2-yl)propyl]quinoxaline-6-carboxamide], in test [1], the IC50 is 500 to 1000 nM and the inhibition at 1 µM was determined as 60%. For the same molecule, the inhibition at 1.667 µM in test [2] was found to be 3%.
On the same counts, the results for `CCc1nc2ccc(C(=O)NCCCc3ncc[nH]3)cc2nc1-c1ccc(F)cc1` [Compound I-307, 2-ethyl-3-(4-fluorophenyl)-N-[3-(1H-imidazol-2-yl)propyl]quinoxaline-6-carboxamide] are 100 to 500 nM, 73% and 4%.
Taken in the same sequence, the figures for `NS(=O)(=O)c1cccc(-c2nc3cc(C(=O)NCCCc4ncc[nH]4)ccc3nc2-c2ccc(F)cc2)c1` [Compound I-308, 2-(4-fluorophenyl)-N-[3-(1H-imidazol-2-yl)propyl]-3-(3-sulfamoylphenyl)quinoxaline-6-carboxamide] were 100 to 500 nM, 89% and 4%.
As to `Cc1cc(-c2nc3cc(C(=O)NCCCc4ncc[nH]4)ccc3nc2-c2ccc(F)cc2)cnc1Cl` [Compound I-309, 3-(6-chloro-5-methylpyridin-3-yl)-2-(4-fluorophenyl)-N-[3-(1H-imidazol-2-yl)propyl]quinoxaline-6-carboxamide], in test [1], the IC50 fell in the range of 100 to 500 nM and the inhibition at 1 µM turned out to be 86%. Further, the inhibition at 1.667 µM in test [2] came out at 3%.
Taken in the same sequence, the figures for `CC(C)Oc1nc2ccc(C(=O)NCCCc3nnc[nH]3)cc2nc1-c1ccc(F)cc1` [Compound I-310, 3-(4-fluorophenyl)-2-isopropoxy-N-[3-(4H-1,2,4-triazol-3-yl)propyl]quinoxaline-6-carboxamide] were 500 to 1000 nM, 62% and 4%.
Turning to `Cc1ccc(-c2nc3cc(C(=O)NCCCc4ncc[nH]4)ccc3nc2-c2ccc(F)cc2)cc1F` [Compound I-311, 3-(3-fluoro-4-methylphenyl)-2-(4-fluorophenyl)-N-[3-(1H-imidazol-2-yl)propyl]quinoxaline-6-carboxamide], in test [1], the IC50 is 100 to 500 nM and the inhibition at 1 µM stood at 76%. In test [2], the inhibition at 1.667 µM came to 2%.
Taken in the same sequence, the figures for `O=C(NCCCc1ncc[nH]1)c1ccc2nc(-c3ccc(F)cc3)c(-c3cccc(Cl)c3F)nc2c1` [Compound I-312, 3-(3-chloro-2-fluorophenyl)-2-(4-fluorophenyl)-N-[3-(1H-imidazol-2-yl)propyl]quinoxaline-6-carboxamide] were below 100 nM, 94% and 2%.
On the same counts, the results for `O=C(NCCCc1ncc[nH]1)c1ccc2nc(-c3ccc(F)cc3)c(-c3ccccc3F)nc2c1` [Compound I-313, 3-(2-fluorophenyl)-2-(4-fluorophenyl)-N-[3-(1H-imidazol-2-yl)propyl]quinoxaline-6-carboxamide] are 100 to 500 nM, 86% and 2%.
Taken in the same sequence, the figures for `O=C(NCCCc1ncc[nH]1)c1ccc2nc(OCC3CCCCC3)c(-c3ccc(F)cc3)nc2c1` [Compound I-314, 2-(cyclohexylmethoxy)-3-(4-fluorophenyl)-N-[3-(1H-imidazol-2-yl)propyl]quinoxaline-6-carboxamide] were below 100 nM, 91% and 3%.
As for `O=C(NCCCc1ncc[nH]1)c1ccc2nc(-c3ccc(Cl)cc3)c(-c3ccc(Cl)cc3)nc2c1` [Compound I-315, 2,3-bis(4-chlorophenyl)-N-[3-(1H-imidazol-2-yl)propyl]quinoxaline-6-carboxamide], in test [1], the IC50 is 100 to 500 nM and the inhibition at 1 µM was 88%. Further, the inhibition at 1.667 µM in test [2] stood at 1%.
Taken in the same sequence, the figures for `O=C(NCCCc1ncc[nH]1)c1ccc2nc(OCC3CC(F)(F)C3)c(-c3ccc(F)cc3)nc2c1` [Compound I-316, 2-[(3,3-difluorocyclobutyl)methoxy]-3-(4-fluorophenyl)-N-[3-(1H-imidazol-2-yl)propyl]quinoxaline-6-carboxamide] were below 100 nM, 98% and 2%.
